System: A. baumannii strain 98-37-09
Test: MEC determination: potentiation of minocycline toward serum grown A. baumannii
Format: cell-based, Acinetobacter baumannii
Details: 1×MEC of compound plus minocycline in serum, versus minocycline alone; plating
Procedure: The TimTec ActiProbe-25K diversity-set and Natural Product compound libraries (29,900 compounds total; TimTec, Newark, Del.) were initially screened for putative efflux pump inhibitors by identifying compounds that potentiated the antimicrobial property of a sub-inhibitory concentration of minocycline toward A. baumannii grown in human serum. To do so, A. baumannii strain 98-37-09 was grown for 16 hours in LB medium at 37° C. on a rotary shaker at 225 rpm. Approximately 1×10^5 CFU were then transferred to individual wells of a 96-well round-bottom plate (Corning Costar, Tewksbury, Mass.) containing 100 μL of human serum supplemented with of minocycline (0.5 μg mL^−1; 0.5× minimum inhibitory concentration in serum) and individual members of the Timtec ActiProbe or Natural product library (50 μM). Plates were then incubated at 37° C. for 48 hours. Growth was measured as a function of turbidity. Putative efflux pump inhibitors were identified as compounds that inhibited A. baumannii growth in human serum containing minocycline and were subsequently retested in triplicate, as indicated above. Untreated A. baumannii grown in serum supplemented with minocycline+/−PAβN served as positive and negative controls, respectively. […] Repeat testing in which well constituents were serial diluted and plated on LB agar plates validated that 85 compounds did indeed limit A. baumannii growth in serum supplemented with minocycline, reducing the number of viable colony forming units between 2-6 log cfu in comparison to minocycline alone treated cells.
The MEC was defined as the lowest concentration of test compound required to inhibit the growth of A. baumannii in serum in the presence of 0.5 μg ml^−1 minocycline. Plating confirmed that addition of 1×MEC of each compound elicited ≥1.9-log reduction in A. baumannii cells grown in serum supplemented with minocycline alone (see Table 1).

Going from Cc1cc2c(c(=O)o1)C(c1ccc(F)cc1)C(C#N)=C(N)O2 (stereo not shown) [ST007013] to NS(=O)(=O)c1ccc(/N=C/c2ccc(F)cc2)cc1 [ST009698], the “Log-reduction Colony Forming Units (ml^−1)” value rises from 1.95 log to 6.45 log (4.50 log units).

Going from c1ccc(CN2CCN(Cc3ccccc3)C2c2cccs2)cc1 [ST007852] to O=C(c1ccc([N+](=O)[O-])cc1Cl)N1CCCc2ccccc21 [ST011123], the “Log-reduction Colony Forming Units (ml^−1)” value falls from 4.21 log to 2.83 log (1.38 log units).

CC1CCN(Cc2cc(Cl)c3cccnc3c2O)CC1 [ST007924] and CCOc1ccccc1C(=O)Nc1sc2c(c1C(=O)OC(C)C)CCCC2 [ST009896] are within 0.2 log units of each other in “Log-reduction Colony Forming Units (ml^−1)” value: 2.42 log for the first, 2.45 log for the second.

Going from CCOc1ccc(/C=N/c2ccc(S(N)(=O)=O)cc2)cc1 [ST009694] to NS(=O)(=O)c1ccc(/N=C/c2ccc(Br)cc2)cc1 [ST009699], the “Log-reduction Colony Forming Units (ml^−1)” value rises from 6.24 log to 6.84 log (0.60 log units).

Going from Cc1ccc(C=Nc2cc([N+](=O)[O-])ccc2O)cc1 [ST010277] to O=[N+]([O-])c1cccc(/C=N/c2ccc(S(=O)(=O)Nc3nccs3)cc2)c1 [ST012961], the “Log-reduction Colony Forming Units (ml^−1)” value falls from 7.33 log to 6.23 log (1.10 log units).

O=[N+]([O-])c1cc2c(cc1/C=N/c1ccc(S(=O)(=O)Nc3nccs3)cc1)OCO2 [ST012902] was tested, and the “Log-reduction Colony Forming Units (ml^−1)” value was 3.71 log.

Same assay, conditions: lowest concentration inhibiting growth in 100% human serum with 0.5 μg ml^−1 minocycline, 48 hr

Compared with Cc1cc2c(c(=O)o1)C(c1ccc(F)cc1)C(C#N)=C(N)O2 (stereo not shown) [ST007013], NS(=O)(=O)c1ccc(/N=C/c2ccc(F)cc2)cc1 [ST009698] is 16-fold higher in MEC: 4 µg/mL for the first, 64 µg/mL for the second.

Compared with c1ccc(CN2CCN(Cc3ccccc3)C2c2cccs2)cc1 [ST007852], O=C(c1ccc([N+](=O)[O-])cc1Cl)N1CCCc2ccccc21 [ST011123] is 8-fold higher in MEC: 4 µg/mL for the first, 32 µg/mL for the second.

Going from CC1CCN(Cc2cc(Cl)c3cccnc3c2O)CC1 [ST007924] to CCOc1ccccc1C(=O)Nc1sc2c(c1C(=O)OC(C)C)CCCC2 [ST009896], the MEC falls from 4 µg/mL to 2 µg/mL (2-fold).

Compared with CCOc1ccc(/C=N/c2ccc(S(N)(=O)=O)cc2)cc1 [ST009694], NS(=O)(=O)c1ccc(/N=C/c2ccc(Br)cc2)cc1 [ST009699] is 2-fold lower in MEC: 4 µg/mL for the first, 2 µg/mL for the second.

Cc1ccc(C=Nc2cc([N+](=O)[O-])ccc2O)cc1 [ST010277] and O=[N+]([O-])c1cccc(/C=N/c2ccc(S(=O)(=O)Nc3nccs3)cc2)c1 [ST012961] are the same in MEC: 32 µg/mL for the first, 32 µg/mL for the second.

With O=[N+]([O-])c1cc2c(cc1/C=N/c1ccc(S(=O)(=O)Nc3nccs3)cc1)OCO2 [ST012902] the MEC was 2 µg/mL.

System: A. baumannii strain 98-37-09
Test: Potentiation of ciprofloxacin toward serum grown A. baumannii
Format: cell-based, Acinetobacter baumannii
Details: 100% human serum, 0.125 μg ml^−1 ciprofloxacin, 1× or 2× MEC, 48 hour, growth inhibition
Source text: As a means to further prioritize non-toxic compounds of interest based on their therapeutic promise, it was considered that broad spectrum antimicrobial efflux pump inhibitors may be more clinically valuable than narrow-spectrum agents that only potentiate the activity of a limited number of antibiotics or that display activity toward a single bacterial species. […] To do so, 1×10^5 A. baumannii strain 98-37-09 were inoculated into individual wells of microtiter plates containing 100% human serum supplemented with 0.125 μg ml^−1 ciprofloxacin and 0, 1×, or 2× the compound's MEC, as defined by the lowest concentration needed to potentiated minocycline's antimicrobial effects (above). Plates were incubated for 48 hour at which point each compound's ability to potentiate ciprofloxacin was measured, as growth inhibition.

With Cc1cc2c(c(=O)o1)C(c1ccc(F)cc1)C(C#N)=C(N)O2 (stereo not shown) [ST007013] the “Potentiate Ciprofloxacin A. baumannii” value was “No”.
Cc1ccc(C=Nc2cc([N+](=O)[O-])ccc2O)cc1 [ST010277] was tested, and the “Potentiate Ciprofloxacin A. baumannii” value was “No”.

System: A. baumannii strain 98-37-09
Test: Cellular accumulation of minocycline (HPLC, triple-quadrupole MS)
Format: cell-based, Acinetobacter baumannii
Details: human serum with 0.5 μg mL^−1 minocycline plus test compound (0.5×MEC, 1×MEC), 48 hours
Procedure: High pressure liquid chromatography and triple-quadrupole mass spectrometry were used to measure the A. baumannii intracellular levels of minocycline during growth in human serum in the absence and presence of each putative efflux pump inhibitor. […] Cultures were incubated for 48 hours with shaking, at which point an aliquot was removed, serially diluted, and plated to determine the number of viable CFU per mixture. The remainder of the cells were pelleted by centrifugation at 900×g at 4° C., washed twice in PBS, mechanically lysed with a FastPrep cell disrupter (MP Biomedicals, Santa Ana, Calif.) for 20 seconds at 5 m s^−1 and the cellular debris was pelleted via centrifugation at 900×g and 4° C. The amount of minocycline present within the supernatant of ruptured cells was measured. Briefly, doxycycline (0.5 μg mL^−1) was first added to each supernatant to serve as an internal control to account for sample-to-sample preparation variability. The supernatant was then combined with acetonitrile (ACN) at a 1:10 ratio and centrifuged at 16,000×g, at 4° C., to collect minocycline and doxycycline. […] residual liquid was evaporated in a speed vacuum for 2 hours at 8,000×g. To quantify the amount of antibiotics retained, sample materials were suspended in 50% acetonitrile, filtered through a 0.2 μm low protein binding hydrophilic membrane (Millipore, Billerica, Mass.) then separated on Shimadzu high performance liquid chromatography instrument (Fisher Scientific) using a BetaBasic C18 reverse phase column (Thermo Scientific). Separation was carried out with two mobile phase solutions consisting of solution (A) water with 0.1% formic acid and solution (B) 100% ACN. The gradient profile of the chromatography runs was as follows: from 0 to 0.1 min 8% solution B, ramp step wise (37% to 60% solution B) from 0.1 to 6.5 min then holding for one minute before ramping down from 60% to 10% from 7.5 to 8 min. This was followed a hold at 10% solution B for one minute. […] The column was equilibrated in 8% solution B at 40° C. and the flow rate was set to 0.2 mL min^−1. Mass spectrometry analysis of fractions was carried out using a Thermo TSQ Quantum Ultra triple quadrupole mass spectrometer (Fisher Scientific). Data were analyzed using Xcalibur software (Thermo Scientific); the following parameters were used to detect minocycline and the internal control doxycycline: 458.208 m/z→282.971 m/z (collision energy=43, tube lens=119) for minocycline and 445.144 m/z→266.900 m/z (collision energy=39, tube lens=127) for doxycycline. Analysis of the raw data was conducted by using the area under the curve calculations with the Genesis algorithm to determine the concentration in each sample. The difference between the peak intensity and the y intercept of pre-established minocycline and doxycycline standard curves was divided by the slope of the standard curve to quantify the amount of minocycline within each sample. The total concentration of minocycline within each cell was calculated by normalizing to the number of cells within each corresponding culture.

Going from Cc1cc2c(c(=O)o1)C(c1ccc(F)cc1)C(C#N)=C(N)O2 (stereo not shown) [ST007013] to NS(=O)(=O)c1ccc(/N=C/c2ccc(F)cc2)cc1 [ST009698], the “Minocylcine Per Cell (femtomoles cell^−1)” value (from here on “Minocylcine Per Cell”) falls from 5E−04 femtomoles cell^−1 to 1.52E−05 femtomoles cell^−1.

Going from c1ccc(CN2CCN(Cc3ccccc3)C2c2cccs2)cc1 [ST007852] to O=C(c1ccc([N+](=O)[O-])cc1Cl)N1CCCc2ccccc21 [ST011123], the “Minocylcine Per Cell” value falls from 5.9E−05 femtomoles cell^−1 to 1.19E−05 femtomoles cell^−1.

First: CC1CCN(Cc2cc(Cl)c3cccnc3c2O)CC1 [ST007924]
Second: CCOc1ccccc1C(=O)Nc1sc2c(c1C(=O)OC(C)C)CCCC2 [ST009896]
The “Minocylcine Per Cell” value of the first is higher: 5.12E−05 femtomoles cell^−1 for the first, 3.99E−05 femtomoles cell^−1 for the second.

Going from CCOc1ccc(/C=N/c2ccc(S(N)(=O)=O)cc2)cc1 [ST009694] to NS(=O)(=O)c1ccc(/N=C/c2ccc(Br)cc2)cc1 [ST009699], the “Minocylcine Per Cell” value rises from 6.8E−07 femtomoles cell^−1 to 1.15E−04 femtomoles cell^−1.

Going from Cc1ccc(C=Nc2cc([N+](=O)[O-])ccc2O)cc1 [ST010277] to O=[N+]([O-])c1cccc(/C=N/c2ccc(S(=O)(=O)Nc3nccs3)cc2)c1 [ST012961], the “Minocylcine Per Cell” value rises from 1.15E−05 femtomoles cell^−1 to 1.13E−04 femtomoles cell^−1.

O=[N+]([O-])c1cc2c(cc1/C=N/c1ccc(S(=O)(=O)Nc3nccs3)cc1)OCO2 [ST012902] was tested, and the “Minocylcine Per Cell” value was 1.1E−05 femtomoles cell^−1.

System: human HepG2 cells
Test: MTT cell viability (cytotoxicity) assay
Details: not given
Procedure: To distinguish putatively non-toxic from human cytotoxic compounds, conventional 3-(4,5-dimethylthiazol-2yl)-2,5-diphenyltetrazolium bromide (MTT) cell viability assays (American Type Culture Collection, Manassas, Va.) were performed for each compound of interest at 1× and 4× their MEC. Briefly, human HepG2 cells were grown to approximately 1×10^6 cells per well in Dulbecco's Modified Eagle Media supplemented with 10% fetal bovine serum (Invitrogen, Carlsbad, Calif.) then treated with 1× or 4× the MEC of the indicated […] Cell viability was measured following the addition of the tetrazolium salt (MTT) as per the manufacturer's recommendations; cells challenged with 50 ug ml^−1 Mitomycin C (Sigma Aldrich) and mock-treated cells served as positive and negative controls, respectively.

Compared with Cc1cc2c(c(=O)o1)C(c1ccc(F)cc1)C(C#N)=C(N)O2 (stereo not shown) [ST007013], NS(=O)(=O)c1ccc(/N=C/c2ccc(F)cc2)cc1 [ST009698] is lower in “% Viability” value: 80.9% for the first, 73.56% for the second.

First: c1ccc(CN2CCN(Cc3ccccc3)C2c2cccs2)cc1 [ST007852]
Second: O=C(c1ccc([N+](=O)[O-])cc1Cl)N1CCCc2ccccc21 [ST011123]
The “% Viability” value of the first is lower: 65.77% for the first, 67.89% for the second.

Going from CC1CCN(Cc2cc(Cl)c3cccnc3c2O)CC1 [ST007924] to CCOc1ccccc1C(=O)Nc1sc2c(c1C(=O)OC(C)C)CCCC2 [ST009896], the “% Viability” value rises from 67.45% to 73.54%.

Compared with CCOc1ccc(/C=N/c2ccc(S(N)(=O)=O)cc2)cc1 [ST009694], NS(=O)(=O)c1ccc(/N=C/c2ccc(Br)cc2)cc1 [ST009699] is lower in “% Viability” value: 74.6% for the first, 70.45% for the second.

Going from Cc1ccc(C=Nc2cc([N+](=O)[O-])ccc2O)cc1 [ST010277] to O=[N+]([O-])c1cccc(/C=N/c2ccc(S(=O)(=O)Nc3nccs3)cc2)c1 [ST012961], the “% Viability” value falls from 82.4% to 59.32%.

With O=[N+]([O-])c1cc2c(cc1/C=N/c1ccc(S(=O)(=O)Nc3nccs3)cc1)OCO2 [ST012902] the “% Viability” value was 55.1%.

From patent US10471028B2, “Small molecule efflux pump inhibitors” (UNIVERSITY OF ROCHESTER, priority 2014, dated 2019)
